Measured values published in US20240066136A1, “MODIFIED PROTEINS AND PROTEIN DEGRADERS” (Cullgen (Shanghai), Inc., priority 2020, published 2024).

Each compound was assayed against Human DDB1 (Homo sapiens (Human), UniProt Q16531) (assay: Surface plasmon resonance (SPR) binding assay to immobilized His-DDB1). Settings: SPR, DDB1 binding moieties with linkers and/or target protein binding moiety; read-out: Binding (Kd).
Experimental: The binding affinities of heterobifunctional compounds to DDB1 were determined by SPR assay. Purified His-DDB1 proteins were immobilized on a CM5 sensor chip, and a dose range of compound solutions were injected in multi-cycle kinetic format. Data were fit to steady state model and gave equivalent dissociation constants (KD).
Protein Expression and Purification. Human DDB1 (UniPro: Q16531) coding sequences were cloned into pFastBacHTB vector and were expressed in High5 cells using Bac-to-Bac baculovirus expression system (Thermo Fisher Scientific). […] DDB1 proteins were obtained from supernatant of cell lysates and purified through sequential application of Ni affinity (Ni-NTA column. Bio-Rad), and size-exclusion (Superdex 200 16/600GL column, GE Healthcare) column chromatography.
Surface plasmon resonance (SPR) binding assay. All SPR studies were performed on a Biacore X100 plus or T200 instrument (GE Healthcare). Immobilization of purified His-DDB1 was carried out at 25° C. using a CM5 sensor chip. The surface was pre-equilibrated in HBS-EP running buffer (10 mM HEPES, pH7.4, 150 mM NaCl, 3 mM EDTA, 0.05% P20), then activated with EDC/NHS. His-DDB1 proteins were immobilized by amine coupling to a density of 11,000-13,000 resonance units (RUs) on flow cell FC2, whereas flow cell FC1 was used as reference. Both DDB1 immobilized and reference surfaces were deactivated with 1M ethanolamine.
All interaction experiments were performed at 25° C. […] Compound Solutions were injected individually in multi-cycle kinetic format without regeneration (flow rate […], association time 120 s, dissociation time 120 s). Sensorgrams from reference surfaces and blank injections were subtracted from the raw data (double-referencing) and the data was solvent-corrected prior to analysis. All data were fit to steady state affinity model using Biacore Evaluation Software and gave equivalent dissociation constants (KD).

Human DDB1, sequence (Q16531 whole entry): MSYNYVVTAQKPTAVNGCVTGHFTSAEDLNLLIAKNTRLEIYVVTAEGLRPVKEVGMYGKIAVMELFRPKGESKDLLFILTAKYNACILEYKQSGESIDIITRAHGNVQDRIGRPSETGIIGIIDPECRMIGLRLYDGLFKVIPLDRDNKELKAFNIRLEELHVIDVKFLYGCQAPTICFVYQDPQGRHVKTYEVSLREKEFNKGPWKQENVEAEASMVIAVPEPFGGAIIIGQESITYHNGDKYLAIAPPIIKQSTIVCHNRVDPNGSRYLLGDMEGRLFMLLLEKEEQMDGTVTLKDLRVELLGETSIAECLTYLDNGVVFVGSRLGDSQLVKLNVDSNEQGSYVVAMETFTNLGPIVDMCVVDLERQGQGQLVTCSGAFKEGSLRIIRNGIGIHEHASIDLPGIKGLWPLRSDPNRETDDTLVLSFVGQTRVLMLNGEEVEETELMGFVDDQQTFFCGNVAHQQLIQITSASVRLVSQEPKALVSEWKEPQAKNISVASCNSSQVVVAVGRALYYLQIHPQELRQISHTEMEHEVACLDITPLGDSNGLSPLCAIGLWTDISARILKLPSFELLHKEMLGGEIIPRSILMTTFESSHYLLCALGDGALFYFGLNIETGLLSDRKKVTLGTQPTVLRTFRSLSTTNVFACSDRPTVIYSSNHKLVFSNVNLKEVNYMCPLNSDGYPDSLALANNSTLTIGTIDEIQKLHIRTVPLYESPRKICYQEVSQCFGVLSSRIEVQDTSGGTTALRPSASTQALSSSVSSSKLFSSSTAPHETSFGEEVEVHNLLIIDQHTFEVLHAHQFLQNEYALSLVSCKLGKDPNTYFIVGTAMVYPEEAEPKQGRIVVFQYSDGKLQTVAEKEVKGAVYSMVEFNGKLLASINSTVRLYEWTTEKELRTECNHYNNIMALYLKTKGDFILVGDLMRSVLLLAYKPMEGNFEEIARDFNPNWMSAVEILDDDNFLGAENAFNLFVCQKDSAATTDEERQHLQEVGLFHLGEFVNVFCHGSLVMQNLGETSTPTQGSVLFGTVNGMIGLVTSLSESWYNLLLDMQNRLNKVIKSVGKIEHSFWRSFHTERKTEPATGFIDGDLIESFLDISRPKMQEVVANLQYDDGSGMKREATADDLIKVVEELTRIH

`CC(=O)Nc1cc(NCCOCCOCCOCCOCCOCCOCCNC(=O)C[C@@H]2N=C(c3ccc(Cl)cc3)c3c(sc(C)c3C)-n3c(C)nnc32)ccc1C(=O)Nc1nc(C)c([N+](=O)[O-])s1` [D-37, (S)-2-Acetamido-4-((1-(4-(4-chlorophenyl)-2,3,9-trimethyl-6H-thieno[3,2-f][1,2,4]triazolo[4,3-a][1,4]diazepin-6-yl)-2-oxo-6,9,12,15,18,21-hexaoxa-3-azatricosan-23-yl)amino)-N-(4-methyl-5-nitrothiazol-2-yl)benzamide] and `CC(=O)Nc1cc(NCCCCCCCNC(=O)C[C@@H]2N=C(c3ccc(Cl)cc3)c3c(sc(C)c3C)-n3c(C)nnc32)ccc1C(=O)Nc1nc(C)c([N+](=O)[O-])s1` [D-29, (S)-2-Acetamido-4-((7-(2-(4-(4-chlorophenyl)-2,3,9-trimethyl-6H-thieno[3,2-f][1,2,4]triazolo[4,3-a][1,4]diazepin-6-yl)acetamido)heptyl)amino)-N-(4-methyl-5-nitrothiazol-2-yl)benzamide] fall in the same range of Kd: 20 to 100 µM for the first, 20 to 100 µM for the second.

First: CC(=O)Nc1cc(C(=O)NCCOCCOCCOCCN)ccc1C(=O)Nc1ncc([N+](=O)[O-])s1 [BL-6, 2-acetamido-N^4-(2-(2-(2-(2-aminoethoxy)ethoxy)ethoxy)ethyl)-N^1-(5-nitrothiazol-2-yl)terephthalamide]
Second: Cc1nc(NC(=O)c2ccccc2NC(=O)CCCCCN)sc1[N+](=O)[O-] [BL-1, 2-(6-Aminohexanamido)-N-(4-methyl-5-nitrothiazol-2-yl)benzamide]
The Kd of the first is higher: 20 to 100 µM for the first, < 20 µM for the second. The second binds more tightly here.

Same assay, conditions: SPR, steady state affinity model, 25° C.; read-out: Binding (DDB1 binder activities, Kd)

First: CC(C)COc1ccccc1C(=O)N(C)c1ncc([N+](=O)[O-])s1 [B-103, 2-Isobutoxy-N-methyl-N-(5-nitrothiazol-2-yl)benzamide]
Second: CC(=O)Oc1ccccc1C(=O)N(C)c1ncc([N+](=O)[O-])s1 [B-8, 2-(Methyl(5-nitrothiazol-2-yl)carbamoyl)phenyl acetate]
The Kd of the first is higher: 20 to 100 µM for the first, < 20 µM for the second.

`O=C1CCCCCCN1c1ncc([N+](=O)[O-])s1` [B-101, 1-(5-Nitrothiazol-2-yl)azocan-2-one] and `CCc1ccc(C(=O)Nc2ncc([N+](=O)[O-])s2)c(C)c1` [B-158, 4-Ethyl-2-methyl-N-(5-nitrothiazol-2-yl)benzamide] fall in the same range of Kd: 20 to 100 µM for the first, 20 to 100 µM for the second.

`CCCCNc1ccc(C(=O)Nc2ncc(Br)s2)c(-c2ccccc2)c1` [B-117, N-(5-Bromothiazol-2-yl)-5-(butylamino)-[1,1′-biphenyl]-2-carboxamide] and `CCCCNc1ccc(C(=O)Nc2ncc(-c3ccccc3)s2)c(-c2ccccc2)c1` [B-120, 5-(Butylamino)-N-(5-phenylthiazol-2-yl)-[1,1′-biphenyl]-2-carboxamide] fall in the same range of Kd: 20 to 100 µM for the first, 20 to 100 µM for the second.

First: CCOc1ccccc1C(=O)Nc1ncc([N+](=O)[O-])s1 [B-7, 2-Ethoxy-N-(5-nitrothiazol-2-yl)benzamide]
Second: O=C(Nc1ncc([N+](=O)[O-])s1)c1ccccc1OC1CC1 [B-75, 2-Cyclopropoxy-N-(5-nitrothiazol-2-yl)benzamide]
The Kd of the first is lower: < 20 µM for the first, > 100 µM for the second. The first binds more tightly here.

Compared with `Cc1cccc(C)c1C(=O)Nc1ncc([N+](=O)[O-])s1` [B-157, 2,6-Dimethyl-N-(5-nitrothiazol-2-yl)benzamide], `CCNc1cccc(C)c1C(=O)Nc1ncc([N+](=O)[O-])s1` [B-169, 2-(Ethylamino)-6-methyl-N-(5-nitrothiazol-2-yl)benzamide] is lower in Kd: > 100 µM for the first, 20 to 100 µM for the second. The second binds more tightly here.

Compared with `CC(=O)Oc1cccc(C)c1C(=O)Nc1ncc([N+](=O)[O-])s1` [B-170, 3-Methyl-2-((5-nitrothiazol-2-yl)carbamoyl)phenyl acetate], `CCCC(=O)Nc1cccc(OC(C)=O)c1C(=O)Nc1ncc([N+](=O)[O-])s1` [B-23, 3-Butyramido-2-((5-nitrothiazol-2-yl)carbamoyl)phenyl acetate] is lower in Kd: > 100 µM for the first, 20 to 100 µM for the second.

First: CCCCNc1ccc(OCC)c(C(=O)Nc2ncc([N+](=O)[O-])s2)c1 [B-155, 5-(Butylamino)-2-ethoxy-N-(5-nitrothiazol-2-yl)benzamide]
Second: CCCCNc1ccc(C)c(C(=O)Nc2ncc([N+](=O)[O-])s2)c1 [B-148, 5-(Butylamino)-2-methyl-N-(5-nitrothiazol-2-yl)benzamide]
The Kd of the first is higher: > 100 µM for the first, 20 to 100 µM for the second.

`CCCCNc1ccc(C(=O)Nc2ncc([N+](=O)[O-])s2)c(C(C)C)c1` [B-109, 4-(Butylamino)-2-isopropyl-N-(5-nitrothiazol-2-yl)benzamide] and `CCCCNc1ccc(NC(C)=O)c(C(=O)Nc2ncc([N+](=O)[O-])s2)c1` [B-149, 2-Acetamido-5-(butylamino)-N-(5-nitrothiazol-2-yl)benzamide] fall in the same range of Kd: 20 to 100 µM for the first, 20 to 100 µM for the second.

`CC(=O)Nc1ccccc1C(=O)Nc1nc(C)c([N+](=O)[O-])s1` [B-27, 2-Acetamido-N-(4-methyl-5-nitrothiazol-2-yl)benzamide] and `CC(=O)Nc1ccccc1C(=O)Nc1nc(Cl)c([N+](=O)[O-])s1` [B-29, 2-Acetamido-N-(4-chloro-5-nitrothiazol-2-yl)benzamide] fall in the same range of Kd: 20 to 100 µM for the first, 20 to 100 µM for the second.

First: CCCc1ccccc1C(=O)N(C)c1ncc([N+](=O)[O-])s1 [B-104, N-Methyl-N-(5-nitrothiazol-2-yl)-2-propylbenzamide]
Second: CN(C(=O)c1ccccc1CCC(F)(F)F)c1ncc([N+](=O)[O-])s1 [B-105, N-Methyl-N-(5-nitrothiazol-2-yl)-2-(3,3,3-trifluoropropyl)benzamide]
The Kd of the first is lower: 20 to 100 µM for the first, > 100 µM for the second. The first binds more tightly here.

First: Cc1cc(C#N)ccc1C(=O)Nc1ncc([N+](=O)[O-])s1 [B-151, 4-Cyano-2-methyl-N-(5-nitrothiazol-2-yl)benzamide]
Second: Cc1cc(Cl)ccc1C(=O)Nc1ncc([N+](=O)[O-])s1 [B-150, 4-chloro-2-methyl-N-(5-nitrothiazol-2-yl)benzamide]
The Kd of the first is higher: > 100 µM for the first, 20 to 100 µM for the second. The second binds more tightly here.

`CCCC(=O)Nc1cccc(OC(=O)CCC)c1C(=O)Nc1ncc([N+](=O)[O-])s1` [B-25, 3-Butyramido-2-((5-nitrothiazol-2-yl)carbamoyl)phenyl butyrate] and `CCCNC(=O)c1ccc(OC(C)=O)c(C(=O)Nc2ncc([N+](=O)[O-])s2)c1` [B-13, 2-((5-Nitrothiazol-2-yl)carbamoyl)-4-(propylcarbamoyl)phenyl acetate] fall in the same range of Kd: 20 to 100 µM for the first, 20 to 100 µM for the second.

First: Cc1cnc(NC(=O)c2ccccc2C)s1 [B-175, 2-Methyl-N-(5-methylthiazol-2-yl)benzamide]
Second: CNC(=O)c1ccccc1C(=O)Nc1ncc([N+](=O)[O-])s1 [B-5, N^1-Methyl-N^2-(5-nitrothiazol-2-yl)phthalamide]
The Kd of the first is lower: < 20 µM for the first, > 100 µM for the second.

First: CC(=O)Nc1ccccc1C(=O)Nc1nccs1 [B-41, 2-Acetamido-N-(thiazol-2-yl)benzamide]
Second: CC(=O)Nc1ccccc1C(=O)Nc1ccncc1 [B-121, 2-Acetamido-N-(pyridin-4-yl)benzamide]
The Kd of the first is higher: > 100 µM for the first, 20 to 100 µM for the second.

Compared with `CC(=O)Nc1ccccc1C(=O)Nc1nc(C)c(Cl)s1` [B-40, 2-acetamido-N-(5-chloro-4-methylthiazol-2-yl)benzamide], `CC(=O)Nc1ccccc1C(=O)Nc1nc(C(C)C)c([N+](=O)[O-])s1` [B-33, 2-Acetamido-N-(4-isopropyl-5-nitrothiazol-2-yl)benzamide] is lower in Kd: 20 to 100 µM for the first, < 20 µM for the second. The second binds more tightly here.

`CCc1nnc(CNC(=O)c2ccccc2C2CCNC2)s1` (stereo not drawn) [B-141, N-((5-ethyl-1,3,4-thiadiazol-2-yl)methyl)-2-(pyrrolidin-3-yl)benzamide] and `CS(=O)(=O)Nc1ccccc1C(=O)Nc1ncc([N+](=O)[O-])s1` [B-67, 2-(methylsulfonamido)-N-(5-nitrothiazol-2-yl)benzamide] fall in the same range of Kd: 20 to 100 µM for the first, 20 to 100 µM for the second.

`CC(=O)Oc1cc(NC2CCOCC2)ccc1C(=O)Nc1ncc([N+](=O)[O-])s1` [B-96, 2-((5-Nitrothiazol-2-yl)carbamoyl)-5-((tetrahydro-2H-pyran-4-yl)amino)phenyl acetate] and `CCOc1cc(NC2CCOCC2)ccc1C(=O)Nc1ncc([N+](=O)[O-])s1` [B-98, 2-Ethoxy-N-(5-nitrothiazol-2-yl)-4-((tetrahydro-2H-pyran-4-yl)amino)benzamide] fall in the same range of Kd: 20 to 100 µM for the first, 20 to 100 µM for the second.

`CC(=O)Nc1ccccc1C(=O)Nc1ccc([N+](=O)[O-])cn1` [B-53, 2-Acetamido-N-(5-nitropyridin-2-yl)benzamide] and `CC(=O)Nc1ccccc1C(=O)Nc1ccc(I)cc1` [B-60, 2-Acetamido-N-(4-iodophenyl)benzamide] fall in the same range of Kd: 20 to 100 µM for the first, 20 to 100 µM for the second.

Compared with `Cc1cc(NC(C)C)ccc1C(=O)Nc1ncc([N+](=O)[O-])s1` [B-161, 4-(Isopropylamino)-2-methyl-N-(5-nitrothiazol-2-yl)benzamide], `CCCCNc1ccc(C(=O)N(C)c2ncc([N+](=O)[O-])s2)c(OCC)c1` [B-107, 4-(Butylamino)-2-ethoxy-N-methyl-N-(5-nitrothiazol-2-yl)benzamide] is lower in Kd: > 100 µM for the first, 20 to 100 µM for the second.
